Measured values: US9018395B2, “Pyrazolopyridine and pyrazolopyrimidine derivatives as melanocortin-4 receptor modulators” (Université de Montréal, priority 2011, dated 2015)

molecular target: T1, wild-type human melanocortin 4 receptor (WT-hMC4R) (Homo sapiens, UniProt P32245); experiment: Cyclic AMP assay (HTRF), antagonist competition against NDP-α-MSH; assay type: cell-based; conditions: HEK293T cells expressing double-tagged WT-hMC4R; cAMP accumulation; 1 hour compound then 4 nM NDP-α-MSH 30 min
T1 construct: expressed in transfected cells; cDNA from UMR cDNA resource center
Protocol: Intracellular cyclic 3′-5′ adenosine monophosphate (cAMP) accumulation was measured using a competitive immunoassay based on HTRF (Homogeneous Time-Resolved Fluorescence) technology (cAMP dynamic-2, Cis-Bio).
HEK293T stable cell line expressing double-tagged WT-hMC4R construct were collected and washed in cAMP buffer (1XD-PBS pH 7.4, 0.1% glucose). 40,000 cells/well were then dispensed in 96-well plates in cAMP buffer [1XD-PBS, 1% BSA, 0.1% Glucose, 0.75 mM 3-isobutyl-1methyl-xanthine (IBMX, Sigma)] and incubated either for antagonist competition assay: 1 hour at 37° C. with various concentrations of compound [0.01 nM-10 μM] followed by 30 min incubation at 37° C. with 4 nM of NDP-α-MSH (Sigma) or for agonist assay: 1 hour at 37° C. with various concentrations of compound [0.01 nM-10 μM]. 10,000 cells were transferred in 384-well plates, lysed and incubated with cAMP labeled with the dye d2 and anti-cAMP M-Antibody labeled with Cryptate following the manufacturer's protocol.
Reading of HTRF signal was performed on Artemis TR-FRET plate reader (Cosmo Bio).
All curve fitting was conducted using non-linear regression analyses from PRISM (version 4.0c, GraphPad Inc.) and the determination of Rmax and EC50 or IC50 parameters were obtained from sigmoidal dose-response phase (variable slope) equation.
A cDNA encoding a wild-type human MC4R with a 3 tandem copies of Hemaglutinine (HA) epitote sequence from UMR cDNA resource center was modified using known techniques in the art (e.g., PCR, cloning) to fused in frame at the C-terminal a venus-Yellow Fluorescent Protein (YFP) cDNA.
The resultant cDNA was then subcloned in eukaryotic expression vector, e.g. pcDNA 3.1(+) (Invitrogen).
The double tagged WT-hMC4R was transfected in HEK293T cells with lipofectamine (Invitrogen) following the manufacturer's instructions and permanently transfected clonal cell lines were selected by resistance to the neomycin analog G418.
HEK293T stable cell line expressing wild-type human melanocortin 4 receptor (WT-hMC4R) containing an N-terminal 3xHA epitope tag and an intracellular C-terminal venus-yellow fluorescent protein (v-YFP) were maintained at 37° C. in humidified air containing 5% CO2 in Dulbecoo's modified Eagle's medium (DMEM) supplemented with 10% fetal bovine serum (FBS), 100 U/ml penicillin/streptomycin (DMEM complete/10% FBS). Cells were generally at 70%-80% confluence on the day of assay.

T1 sequence (P32245 whole entry): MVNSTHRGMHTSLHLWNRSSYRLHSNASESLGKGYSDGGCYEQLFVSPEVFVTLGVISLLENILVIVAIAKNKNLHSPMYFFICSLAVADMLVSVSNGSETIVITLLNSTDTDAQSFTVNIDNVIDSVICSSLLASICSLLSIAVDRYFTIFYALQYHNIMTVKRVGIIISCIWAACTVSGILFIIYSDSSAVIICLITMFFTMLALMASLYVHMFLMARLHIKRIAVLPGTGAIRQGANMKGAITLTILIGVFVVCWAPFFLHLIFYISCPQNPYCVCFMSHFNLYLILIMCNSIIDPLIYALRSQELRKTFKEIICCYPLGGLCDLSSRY

SMILES | IC50
CC(C)CCN(CCC(C)C)C(=O)c1ccn2nc(-c3ccccc3)c(CCCN3CCCCC3)c2c1 [Example 55] | 1 to 5 µM
CCCCCN(CCCCC)C(=O)c1ccn2nc(-c3ccc(C)cc3)c(CCCN3CCCCC3)c2c1 [Example 62] | 1 to 5 µM
COc1cc(-c2nn3ccc(C(=O)N(CCC(C)C)CCC(C)C)cc3c2CCCN2CCCCC2)cc(OC)c1OC [Example 67] | < 0.5 µM
COc1cc(-c2nn3ccc(C(=O)N(CCC(C)C)CCC(C)C)cc3c2/C=C/CN2CCCCC2)cc(OC)c1OC [Example 70] | < 0.5 µM
CC(C)CCN(CCC(C)C)C(=O)c1ccn2nc(-c3cccc(C(=O)O)c3)c(CCCN3CCCCC3)c2c1 [Example 74] | 1 to 5 µM
CCOc1ccc(-c2nn3ccc(C(=O)N(CCC(C)C)CCC(C)C)cc3c2CCCN2CCC(F)(F)CC2)cc1 [Example 80] | 5 to 15 µM
CCOc1ccc(-c2nn3ccc(C(=O)N(CCC(C)C)CCC(C)C)cc3c2/C=C/CN2CCC(C(F)(F)F)CC2)cc1 [Example 81] | 5 to 15 µM
CCOc1ccc(-c2nn3ccc(C(=O)N(CCC(C)C)CCC(C)C)cc3c2CCCN2CCC(C(F)(F)F)CC2)cc1 [Example 82] | 5 to 15 µM
CC(C)CCN(CCC(C)C)C(=O)c1ccn2nc(-c3cccc(Cl)c3)c(CCCN3CCCCC3)c2c1 [Example 83, 2-(3-Chlorophenyl)-N,N-diisopentyl-3-(3-(piperidin-1-yl)propyl)pyrazolo[1,5-a]pyridine-5-carboxamide] | < 0.5 µM
COc1cc(OC)cc(-c2nn3ccc(C(=O)N(CCC(C)C)CCC(C)C)cc3c2/C=C/CN2CCCCC2)c1 [Example 84] | < 0.5 µM
COc1cc(OC)cc(-c2nn3ccc(C(=O)N(CCC(C)C)CCC(C)C)cc3c2CCCN2CCCCC2)c1 [Example 86] | < 0.5 µM
COc1ccc(-c2nn3ccc(C(=O)N(CCC(C)C)CCC(C)C)nc3c2/C=C/CN2CCCCC2)cc1 [Example 88, (E)-N,N-Diisopentyl-2-(4-methoxyphenyl)-3-(3-(piperidin-1-yl)prop-1-en-1-yl)pyrazolo[1,5-a]pyrimidine-5-carboxamide] | 1 to 5 µM
CC(C)CCN(CCC(C)C)C(=O)c1ccn2nc(-c3cccc(C(N)=O)c3)c(CCCN3CCCCC3)c2c1 [Example 90] | < 0.5 µM
CC(C)CCN(CCC(C)C)C(=O)c1ccn2nc(-c3cccc(C#N)c3)c(CCCN3CCCCC3)c2c1 [Example 92] | < 0.5 µM
CC(C)CCN(CCC(C)C)C(=O)c1ccn2nc(-c3cccc(-c4nnn[nH]4)c3)c(CCCN3CCCCC3)c2c1 [Example 94] | 0.5 to 1 µM
COc1ccc(Cl)cc1-c1nn2ccc(C(=O)N(CCC(C)C)CCC(C)C)cc2c1C#CCCN1CCCCC1 [Example 97] | 1 to 5 µM
CC(C)CCN(CCC(C)C)C(=O)c1ccn2nc(-c3ccc(-c4nnn[nH]4)cc3)c(CCCN3CCCCC3)c2c1 [Example 98] | 1 to 5 µM
COc1ccc(-c2nn3ccc(C(=O)N(CCC(C)C)CCC(C)C)nc3c2/C=C/CN2CCCC2)cc1 [Example 99] | 1 to 5 µM
CCN(CC)C/C=C/c1c(-c2ccc(OC)cc2)nn2ccc(C(=O)N(CCC(C)C)CCC(C)C)nc12 [Example 100] | 5 to 15 µM
COc1ccc(Cl)cc1-c1nn2ccc(C(=O)N(CCC(C)C)CCC(C)C)cc2c1C#CCN1CCCCC1 [Example 101] | < 0.5 µM
COc1ccc(-c2nn3ccc(C(=O)N(CCC(C)C)CCC(C)C)nc3c2CCCN2CCCC2)cc1 [Example 104] | 5 to 15 µM
CCN(CC)CCCc1c(-c2ccc(OC)cc2)nn2ccc(C(=O)N(CCC(C)C)CCC(C)C)nc12 [Example 105] | 5 to 15 µM
CC(=O)O/N=C(\N)c1ccc(-c2nn3ccc(C(=O)N(CCC(C)C)CCC(C)C)cc3c2CCCN2CCCCC2)cc1 [Example 107] | < 0.5 µM

Further lines, results first:

IC50 | SMILES
1 to 5 µM | CCCCN(CCCC)C(=O)c1ccn2nc(-c3ccc(F)cc3)c(/C=C/CN3CCCCC3)c2c1 [Example 51]
0.5 to 1 µM | CC(C)CCN(CCC(C)C)C(=O)c1ccn2nc(-c3ccc(F)cc3)c(/C=C/CN3CCCCC3)c2c1 [Example 52]
1 to 5 µM | CCCCCN(CCCCC)C(=O)c1ccn2nc(-c3ccc(F)cc3)c(/C=C/CN3CCCCC3)c2c1 [Example 53]
0.5 to 1 µM | CCCCN(CCCC)C(=O)c1ccn2nc(-c3ccccc3)c(CCCN3CCCCC3)c2c1 [Example 54]
0.5 to 1 µM | CCCCCN(CCCCC)C(=O)c1ccn2nc(-c3ccccc3)c(CCCN3CCCCC3)c2c1 [Example 56]
1 to 5 µM | CCCCN(CCCC)C(=O)c1ccn2nc(-c3ccccc3)c(/C=C/CN3CCCCC3)c2c1 [Example 57]
0.5 to 1 µM | CC(C)CCN(CCC(C)C)C(=O)c1ccn2nc(-c3ccccc3)c(/C=C/CN3CCCCC3)c2c1 [Example 58]
1 to 5 µM | CCCCCN(CCCCC)C(=O)c1ccn2nc(-c3ccccc3)c(/C=C/CN3CCCCC3)c2c1 [Example 59]
0.5 to 1 µM | CCCCN(CCCC)C(=O)c1ccn2nc(-c3ccc(C)cc3)c(CCCN3CCCCC3)c2c1 [Example 60]
< 0.5 µM | Cc1ccc(-c2nn3ccc(C(=O)N(CCC(C)C)CCC(C)C)cc3c2CCCN2CCCCC2)cc1 [Example 61]
0.5 to 1 µM | CCCCN(CCCC)C(=O)c1ccn2nc(-c3ccc(C)cc3)c(/C=C/CN3CCCCC3)c2c1 [Example 63]
< 0.5 µM | Cc1ccc(-c2nn3ccc(C(=O)N(CCC(C)C)CCC(C)C)cc3c2/C=C/CN2CCCCC2)cc1 [Example 64]
1 to 5 µM | CCCCCN(CCCCC)C(=O)c1ccn2nc(-c3ccc(C)cc3)c(/C=C/CN3CCCCC3)c2c1 [Example 65]
0.5 to 1 µM | CCCCN(CCCC)C(=O)c1ccn2nc(-c3cc(OC)c(OC)c(OC)c3)c(CCCN3CCCCC3)c2c1 [Example 66]
0.5 to 1 µM | CCCCCN(CCCCC)C(=O)c1ccn2nc(-c3cc(OC)c(OC)c(OC)c3)c(CCCN3CCCCC3)c2c1 [Example 68]
0.5 to 1 µM | CCCCN(CCCC)C(=O)c1ccn2nc(-c3cc(OC)c(OC)c(OC)c3)c(/C=C/CN3CCCCC3)c2c1 [Example 69]
1 to 5 µM | CCCCCN(CCCCC)C(=O)c1ccn2nc(-c3cc(OC)c(OC)c(OC)c3)c(/C=C/CN3CCCCC3)c2c1 [Example 71]

IC50 | SMILES
0.5 to 1 µM | CC(C)CCN(CCC(C)C)C(=O)c1ccn2nc(-c3cccc(Cl)c3)c(/C=C/CN3CCCCC3)c2c1 [Example 72, (E)-2-(3-chlorophenyl)-N,N-diisopentyl-3-(3-(piperidin-1-yl)prop-1-en-1-yl)pyrazolo[1,5-a]pyridine-5-carboxamide]
1 to 5 µM | CC(C)CCN(CCC(C)C)C(=O)c1ccn2nc(-c3cccc(C(=O)O)c3)c(/C=C/CN3CCCCC3)c2c1 [Example 73]
1 to 5 µM | CC(C)CCN(CCC(C)C)C(=O)c1ccn2nc(-c3ccc(C(=O)O)cc3)c(CCCN3CCCCC3)c2c1 [Example 75]
1 to 5 µM | CC(C)CCN(CCC(C)C)C(=O)c1ccn2nc(-c3ccc(OCc4ccccc4)cc3)c(/C=C/CN3CCCCC3)c2c1 [Example 76]
< 0.5 µM | CC(C)CCN(CCC(C)C)C(=O)c1ccn2nc(-c3cccc(C(N)=O)c3)c(/C=C/CN3CCCCC3)c2c1 [Example 77]
< 0.5 µM | CC(C)CCN(CCC(C)C)C(=O)c1ccn2nc(-c3ccc(O)cc3)c(CCCN3CCCCC3)c2c1 [Example 78]
5 to 15 µM | CCOc1ccc(-c2nn3ccc(C(=O)N(CCC(C)C)CCC(C)C)cc3c2/C=C/CN2CCC(F)(F)CC2)cc1 [Example 79]
0.5 to 1 µM | CCCCN(CCCC)C(=O)c1ccn2nc(-c3cc(OC)cc(OC)c3)c(/C=C/CN3CCCCC3)c2c1 [Example 85]
1 to 5 µM | CCCCN(CCCC)C(=O)c1ccn2nc(-c3cc(OC)cc(OC)c3)c(CCCN3CCCCC3)c2c1 [Example 87]
0.5 to 1 µM | CC(C)CCN(CCC(C)C)C(=O)c1ccn2nc(-c3ccc(C(N)=O)cc3)c(/C=C/CN3CCCCC3)c2c1 [Example 91]
5 to 15 µM | CC(C)CCN(CCC(C)C)C(=O)c1ccn2nc(-c3ccc(Br)cc3)c(/C=C/CN3CCOCC3)c2c1 [Example 93]
< 0.5 µM | CC(C)CCN(CCC(C)C)C(=O)c1ccn2nc(-c3ccc(C(N)=O)cc3)c(CCCN3CCCCC3)c2c1 [Example 95]
< 0.5 µM | CC(C)CCN(CCC(C)C)C(=O)c1ccn2nc(-c3ccc(C#N)cc3)c(CCCN3CCCCC3)c2c1 [Example 96]
< 0.5 µM | CC(C)CCN(CCC(C)C)C(=O)c1ccn2nc(-c3ccc(/C(N)=N/O)cc3)c(CCCN3CCCCC3)c2c1 [Example 102]
0.5 to 1 µM | CC(C)CCN(CCC(C)C)C(=O)c1ccn2nc(-c3ccc(-c4noc(=O)[nH]4)cc3)c(CCCN3CCCCC3)c2c1 [Example 103]
1 to 5 µM | COc1ccc(-c2nn3ccc(C(=O)N(CCC(C)C)CCC(C)C)cc3c2/C=C/CN2CCCCCC2)cc1 [Example 106]
